These results are taken from patent publication US20150368242A1, “NOVEL TETRAHYDROPYRIDOPYRIMIDINONE DERIVATIVE” (Ajinomoto Co., Inc., priority 2013, published 2015).

The assay has as its target T1, recombinant human MGAT2 enzyme (Homo sapiens, UniProt Q3SYC2).
T1 construct: made in house; host or cells: CHO-K1 (Jump-In CHO-K1 Kit, Life Technologies); microsomal fraction used as the enzyme solution
Kind of assay: Test for human MGAT2 activity inhibitory action (14C-oleoyl CoA, recombinant enzyme microsomes). The assay is classed as biochemical. Also noted: key to Potency relative to Comparative Example 1 (higher = more potent): % inhibition = {1−(C−B)/(A−B)}×100, B = 10 μM Comparative Example 1. Particulars: for IC50: Table 5, Examples 25 to 60, same method, read-out: IC50; for Potency relative to Comparative Example 1 (higher = more potent): Table 5, relative to Comparative Example 1 measured in the same run. The procedure:
The human MGAT2 gene described in Am. J. Physiol. Endocrinol. Metab. 285: E927-E937, 2003 was expressed using Jump-In™ CHO-K1 Kit (Life technologies) as described in the attached manual. The cells were suspended in a buffer containing Tris-hydrochloric acid (pH 7.4) at a final concentration of 1 mM, 1 mM ethylenediaminetetraacetic acid, 1 mM dithiothreitol, 250 mM sucrose, and complete protease inhibitor cocktail (Roche applied Science), and then disrupted using a Teflon homogenizer (AS ONE Corporation), followed by centrifugation at 130 g for 10 minutes. The supernatant was further centrifuged at 100,000 g for 1 hour to obtain a pellet as microsomes containing the recombinant enzyme, and a solution obtained by suspending this pellet at a protein concentration of about 800 to 1900 μg/ml was used as an MGAT recombinant enzyme solution.
To a buffer containing 50 mM Tris-hydrochloric acid (pH 7.4), 6 mM magnesium chloride, and 2 mg/mL bovine serum albumin, a test compound was added, and the final concentration of dimethyl sulfoxide was adjusted to 0.3%. Moreover, 2-monooleoyl glycerol, oleoyl CoA, 1-^14C-oleoyl CoA (Perkin Elmer), and orlistat (SIGMA) were added at final concentrations of 50 μM, 50 μM, 2.2 μM, and 8.3 μM, respectively, followed by incubation at 37° C. for 10 minutes. After 10 minutes, the recombinant human MGAT2 enzyme solution was added at a final concentration of 0.67 μg/mL, and the reaction was started, with the amount of the reaction solution being 150 μl. The reaction was carried out at 37° C. for 30 minutes.
After 30 minutes, the reaction was stopped by adding 300 μl of isopropanol:heptane:water=(80:20:2) to the reaction liquid. Further, 200 μl of heptane and 100 μl of water were added, followed by stirring. Then, 100 μl of the upper layer was transferred to a 96-well plate (Corning), and mixed with 100 μl of liquid scintillator (LumaSafe Plus, Lumac). Then, the ^14C count was quantitatively determined using TopCount NXT™ microplate scintillation luminescence counter (Perkin Elmer).
The ^14C count in a case where no test compound was added was defined as A, the ^14C count in a case where 10 μM of the compound (Comparative Example 1) of Example No. 8 of WO2008/038768 was added was defined as B, and the ^14C count in the case where the test compound was added was taken as C. For this case, {1−(C−B)/(A−B)}×100(%) was calculated as the human MGAT2 activity inhibition ratio of the test compound (shown in the column named vs Comp. Ex. 1 in the following Table). A greater value of the “vs Comparative Example 1” means that the MGAT2 activity inhibitory action of the compound of Example was higher as compared to the MGAT2 activity inhibitory action of the compound of Comparative Example 1 (i.e., the human MGAT2 activity inhibition ratio was higher). […] Since this evaluation test was conducted for two separate groups, the test results of the two groups are shown separately in Table (First Test) and Table 4 (Second Test).
Next, the compounds of Examples 25 to 60 of the present invention were also investigated for their pharmacological action by using the same method as in Examples 1 to 24. […] Note that, a comparative evaluation test against the compound of Comparative Example 1 was conducted for each of the compounds of Examples (in every measurement of the inhibitory activity of the compounds of Examples 25 to 60, the inhibitory activity of the compound of Comparative Example 1 was measured). The 50% inhibition concentrations of Comparative Example 1 in the measurement of the inhibitory activities of the compounds of Examples 25 to 60 were shown in Table 5 as “IC50 (nM) of Comparative Example 1.”

The structures appear in SMILES notation. Counter-ions that a name gives are not always drawn.

T1 sequence (Q3SYC2 whole entry): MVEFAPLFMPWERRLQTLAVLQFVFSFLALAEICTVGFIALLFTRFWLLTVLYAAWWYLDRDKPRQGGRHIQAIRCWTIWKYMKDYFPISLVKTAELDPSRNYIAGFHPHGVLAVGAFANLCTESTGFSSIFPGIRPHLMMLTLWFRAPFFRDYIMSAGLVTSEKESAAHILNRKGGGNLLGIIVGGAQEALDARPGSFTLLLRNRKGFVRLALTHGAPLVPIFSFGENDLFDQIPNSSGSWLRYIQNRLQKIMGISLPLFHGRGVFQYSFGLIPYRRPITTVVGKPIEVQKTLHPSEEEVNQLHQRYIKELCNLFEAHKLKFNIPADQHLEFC

Take `C[C@H](CNCCC(=O)N1CCc2nc(SC3CCC3)n(-c3ccccc3)c(=O)c2C1)c1ccccc1` [Example 37, 2-cyclobutylsulfanyl-3-phenyl-6-[3-[[(2S)-2-phenylpropyl]amino]propanoyl]-7,8-dihydro-5H-pyrido[4,3-d]pyrimidin-4-one trifluoroacetate]: the concentration for half-maximal inhibition (IC50) was 0.5 nM and the “Potency relative to Comparative Example 1 (higher = more potent)” value is listed as 273.

For the compound `O=C(CCNCCNc1ccccc1)N1CCc2nc(SC3CCC3)n(-c3ccccc3)c(=O)c2C1` [Example 38, 6-[3-(2-aminolinoethylamino)propanoyl]-2-cyclobutylsulfanyl-3-phenyl-7,8-dihydro-5H-pyrido[4,3-d]pyrimidin-4-one trifluoroacetate], the IC50 was found to be 1.4 nM and the “Potency relative to Comparative Example 1 (higher = more potent)” value stood at 211.

`O=C(CCNCC1CCCC(C(F)(F)F)C1)N1CCc2nc(SC3CCC3)n(-c3ccccc3)c(=O)c2C1` (centres unmarked) [Example 39, 2-cyclobutylsulfanyl-3-phenyl-6-[3-[[3-(trifluoromethyl)cyclohexyl]methylamino]propanoyl]-7,8-dihydro-5H-pyrido[4,3-d]pyrimidin-4-one trifluoroacetate]: the IC50 amounted to 0.4 nM and the “Potency relative to Comparative Example 1 (higher = more potent)” value was 320.

As for `CC(C)[C@H](CNCCC(=O)N1CCc2nc(SC3CCC3)n(-c3ccccc3)c(=O)c2C1)Nc1ccc(Cl)cc1` [Example 40, 6-[3-[[(2R)-2-(4-chloroanilino)-3-methyl-butyl]amino]propanoyl]-2-cyclobutylsulfanyl-3-phenyl-7,8-dihydro-5H-pyrido[4,3-d]pyrimidin-4-one trifluoroacetate], the IC50 came to 0.7 nM.

As to `C[C@@H](NCCC(=O)N1CCc2nc(SC3CCC3)n(-c3ccccc3)c(=O)c2C1)c1ccccc1` [Example 41, 2-cyclobutylsulfanyl-3-phenyl-6-[3-[[(1R)-1-phenylethyl]amino]propanoyl]-7,8-dihydro-5H-pyrido[4,3-d]pyrimidin-4-one trifluoroacetate], the IC50 stood at 1.1 nM.

Regarding `C[C@H](NCCC(=O)N1CCc2nc(SC3CCC3)n(-c3ccccc3)c(=O)c2C1)c1ccccc1` [Example 42, 2-cyclobutylsulfanyl-3-phenyl-6-[3-[[(1S)-1-phenylethyl]amino]propanoyl]-7,8-dihydro-5H-pyrido[4,3-d]pyrimidin-4-one trifluoroacetate], the IC50 amounted to 1.2 nM.

Regarding `O=C(CCNC[C@H](O)c1ccc(F)cc1)N1CCc2nc(SC3CCC3)n(-c3ccccc3)c(=O)c2C1` [Example 43, 2-cyclobutylsulfanyl-6-[3-[[(2R)-2-(4-fluorophenyl)-2-hydroxy-ethyl]amino]propanoyl]-3-phenyl-7,8-dihydro-5H-pyrido[4,3-d]pyrimidin-4-one trifluoroacetate], the IC50 is 2.5 nM.

With `O=C(CCNCC(O)COc1ccc(F)cc1)N1CCc2nc(SC3CCC3)n(-c3ccccc3)c(=O)c2C1` (centres unmarked) [Example 44, trifluoroacetate], the IC50 was found to be 1.8 nM and the “Potency relative to Comparative Example 1 (higher = more potent)” value worked out at 135.

In the case of `O=C(CCNCC(O)COc1ccc(Cl)cc1)N1CCc2nc(SC3CCC3)n(-c3ccccc3)c(=O)c2C1` (centres unmarked) [Example 45, 6-[3-[[3-(4-chlorophenoxy)-2-hydroxy-propyl]amino]propanoyl]-2-cyclobutylsulfanyl-3-phenyl-7,8-dihydro-5H-pyrido[4,3-d]pyrimidin-4-one trifluoroacetate], the IC50 came out at 1.3 nM.

For the compound `O=C(CCNCCOc1ccc(F)cc1)N1CCc2nc(SC3CCC3)n(-c3ccccc3)c(=O)c2C1` [Example 46, 2-cyclobutylsulfanyl-6-[3-[2-(4-fluorophenoxy)ethylamino]propanoyl]-3-phenyl-7,8-dihydro-5H-pyrido[4,3-d]pyrimidin-4-one trifluoroacetate], the IC50 is below 1 nM.

On to `O=C(CCNCCCOc1ccc(F)cc1)N1CCc2nc(SC3CCC3)n(-c3ccccc3)c(=O)c2C1` [Example 47, 2-cyclobutylsulfanyl-6-[3-[3-(4-fluorophenoxy)propylamino]propanoyl]-3-phenyl-7,8-dihydro-5H-pyrido[4,3-d]pyrimidin-4-one trifluoroacetate], for which the IC50 stood at 1.1 nM.

Turning to `O=C(CCNCCCCOc1ccc(F)cc1)N1CCc2nc(SC3CCC3)n(-c3ccccc3)c(=O)c2C1` [Example 48, 2-cyclobutylsulfanyl-6-[3-[4-(4-fluorophenoxy)butylamino]propanoyl]-3-phenyl-7,8-dihydro-5H-pyrido[4,3-d]pyrimidin-4-one trifluoroacetate], the IC50 was below 1 nM and the “Potency relative to Comparative Example 1 (higher = more potent)” value was above 184.

In the case of `O=C(CCNCCCCCOc1ccc(F)cc1)N1CCc2nc(SC3CCC3)n(-c3ccccc3)c(=O)c2C1` [Example 49, 2-cyclobutylsulfanyl-6-[3-[5-(4-fluorophenoxy)pentylamino]propanoyl]-3-phenyl-7,8-dihydro-5H-pyrido[4,3-d]pyrimidin-4-one trifluoroacetate], the concentration for half-maximal inhibition (IC50) is below 1 nM and the “Potency relative to Comparative Example 1 (higher = more potent)” value was above 184.

In the case of `O=C(CNCCCOc1ccc(F)cc1)N1CCc2nc(SC3CCC3)n(-c3ccccc3)c(=O)c2C1` [Example 50, 2-cyclobutylsulfanyl-6-[2-[3-(4-fluorophenoxy)propylamino]acetyl]-3-phenyl-7,8-dihydro-5H-pyrido[4,3-d]pyrimidin-4-one trifluoroacetate], the IC50 was 3.7 nM and the “Potency relative to Comparative Example 1 (higher = more potent)” value is 73.

Consider `O=C(CNCCOc1ccc(F)cc1)N1CCc2nc(SC3CCC3)n(-c3ccccc3)c(=O)c2C1` [Example 51, 2-cyclobutylsulfanyl-6-[2-[2-(4-fluorophenoxy)ethylamino]acetyl]-3-phenyl-7,8-dihydro-5H-pyrido[4,3-d]pyrimidin-4-one trifluoroacetate], for which the IC50 is 4.2 nM and the “Potency relative to Comparative Example 1 (higher = more potent)” value turned out to be 64.

Consider `O=C(CNCCCCOc1ccc(F)cc1)N1CCc2nc(SC3CCC3)n(-c3ccccc3)c(=O)c2C1` [Example 52, 2-cyclobutylsulfanyl-6-[2-[4-(4-fluorophenoxy)butylamino]acetyl]-3-phenyl-7,8-dihydro-5H-pyrido[4,3-d]pyrimidin-4-one trifluoroacetate], for which the IC50 was found to be 1.7 nM and the “Potency relative to Comparative Example 1 (higher = more potent)” value came to 158.

In the case of `O=C(CNCCCCCOc1ccc(F)cc1)N1CCc2nc(SC3CCC3)n(-c3ccccc3)c(=O)c2C1` [Example 53, 2-cyclobutylsulfanyl-6-[2-[5-(4-fluorophenoxy)pentylamino]acetyl]-3-phenyl-7,8-dihydro-5H-pyrido[4,3-d]pyrimidin-4-one trifluoroacetate], the IC50 worked out at 2 nM and the “Potency relative to Comparative Example 1 (higher = more potent)” value came to 133.

Consider `O=C(CNCc1ccc(Oc2cccc(C(F)(F)F)c2)cc1)N1CCc2nc(SC3CCC3)n(-c3ccccc3)c(=O)c2C1` [Example 54, 2-cyclobutylsulfanyl-3-phenyl-6-[2-[[4-[3-(trifluoromethyl)phenoxy]phenyl]methylamino]acetyl]-7,8-dihydero-5H-pyrido[4,3-d]pyrimidin-4-one trifluoroacetate], for which the IC50 is 2.6 nM and the “Potency relative to Comparative Example 1 (higher = more potent)” value is 91.
